From publication PMC9250534, “Synthesis and direct assay of large macrocycle diversities by combinatorial late-stage modification at picomole scale” (Nature Communications, 2022)
Numbered stars: 1 amine (or outer) side, 2 acyl side, 3 side chain; on linkers, the order of the positions; unused ones are H or OH. Bridge positions count the residues as written; N and C are the ends. Square brackets hold non-standard residues; d marks the D form. Peptide text beside a SMILES is read from it. * marks the point of attachment. 2Thenoyl(5-Cl) = O=C(c1ccc(Cl)s1)*; Cysteamide = C(CS[*:3])N[*:1]; dDap = NC[C@@H](N)C(=O)O; Orn = NCCC[CH](N)C(=O)O; Dap = NC[C@H](N)C(=O)O; Mpa = O=C(O)CCS

Target: T1, thrombin (Homo sapiens, UniProt P00734)
T1 construct: consists of two polypeptide chains of 36 (light chain) and 259 amino acid
Experiment: Thrombin inhibition screen of crude macrocycle reactions (residual thrombin activity, fluorogenic substrate Z-Gly-Gly-Arg-AMC)
Format: biochemical
Settings: 10 µM macrocycle concentration, macrocycles containing acid 14, crude reaction; for % thrombin activity, Repeat screen: replicate reaction and screen
In short: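 Each crude macrocycle (10 μM) was preincubated 10 min at room temperature with thrombin (2 nM final) in Tris-Cl pH 7.4 containing NaCl, MgCl2, CaCl2, 0.1% BSA, 0.01% Triton X-100 and 0.6% DMSO. Z-Gly-Gly-Arg-AMC (50 μM final) was then added. Inhibition came from fluorescence slopes relative to DMSO-only controls.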

| % thrombin activity, Original screen [%] | % thrombin activity, Repeat screen [%] | % thrombin activity, Original screen (listed as X D6 V B5) [%] | % thrombin activity, Repeat screen (listed as X D6 V B5) [%] | SMILES |
| --- | --- | --- | --- | --- |
| 101.5 | 109.4 | – | – | O=C1CCSSCCNC(=O)c2ccc(cc2)CNC(=O)[C@H](Cc2c[nH]c3ccccc23)NC(=O)[C@H](CNC(=O)c2ccc(Cl)s2)N1 [X D3 W B3] |
| 103.5 | 106.9 | – | – | CC1NC(=O)C(CNC(=O)c2ccc(Cl)s2)NC(=O)CCSSCCNC(=O)c2cccc(c2)CNC1=O (stereo not shown) [X D4 a B5] |
| 115.0 | 124.0 | – | – | O=C1CCNC(=O)C2CC(NC(=O)c3ccc(Cl)s3)CN2C(=O)CCSSCCNC(=O)C(CO)N1 (stereo not shown) [X D5 B2 S] |
| 114.0 | 116.8 | – | – | CC(C)CC1NC(=O)C2(CC2)CNC(=O)C2CC(NC(=O)c3ccc(Cl)s3)CN2C(=O)CCSSCCNC1=O (stereo not shown) [X D5 B6 L] |
| 110.6 | 115.5 | – | – | CC(C)CC1NC(=O)C2CC(NC(=O)c3ccc(Cl)s3)CN2C(=O)CCSSCCNC(=O)c2ccc(cc2)CNC1=O (stereo not shown) [X D5 L B3] |
| 94.2 | 89.4 | – | – | CC(C)CC1NC(=O)C2CC(NC(=O)c3ccc(Cl)s3)CN2C(=O)CCSSCCNC(=O)C2CCCN(C2)C1=O (stereo not shown) [X D5 L B4] |
| 94.5 | 101.1 | – | – | NC(=O)CCC1NC(=O)C2CC(NC(=O)c3ccc(Cl)s3)CN2C(=O)CCSSCCNC(=O)c2ccc(cc2)CNC1=O (stereo not shown) [X D5 Q B3] |
| 92.6 | 101.4 | – | – | O=C1NCCSSCCC(=O)N2CC(NC(=O)c3ccc(Cl)s3)CC2C(=O)NC(CO)C(=O)NCc2ccc1cc2 (stereo not shown) [X D5 s B3] |
| 102.3 | 104.9 | – | – | CC[C@H](C)[C@@H]1NC(=O)CCSSCCNC(=O)c2ccc(cc2)CNC(=O)[C@H](CNC(=O)c2ccc(Cl)s2)NC1=O [X I D3 B3] |
| 100.1 | 95.2 | – | – | CC(C)C[C@@H]1NC(=O)CCSSCCNC(=O)c2cccc(c2)CNC(=O)[C@H](CCCNC(=O)c2ccc(Cl)s2)NC1=O [X L D2 B5] |
| 107.5 | 100.9 | – | – | CC(C)C[C@@H]1NC(=O)CCSSCCNC(=O)[C@@H]2CCCN2C(=O)[C@@H](CNC(=O)c2ccc(Cl)s2)NC1=O [X L D4 B1] ([Mpa]L[dDap](2Thenoyl(5-Cl))P-Cysteamide; disulfide 1-C) |

Further lines, the molecule ahead of its results:

| SMILES | % thrombin activity, Original screen [%] | % thrombin activity, Repeat screen [%] | % thrombin activity, Original screen (listed as X D6 V B5) [%] | % thrombin activity, Repeat screen (listed as X D6 V B5) [%] |
| --- | --- | --- | --- | --- |
| NC(=O)CC[C@@H]1NC(=O)[C@H](CNC(=O)c2ccc(Cl)s2)NC(=O)CCSSCCNC(=O)C2(CC2)CNC1=O [X D3 Q B6] | 72.8 | 67.3 | – | – |
| O=C1CCNC(=O)[C@@H](Cc2ccc(O)cc2)NC(=O)[C@H](CNC(=O)c2ccc(Cl)s2)NC(=O)CCSSCCN1 [X D3 y B2] | 78.6 | 75.2 | – | – |
| O=C1CCSSCCNC(=O)[C@@H]2CCCN2C(=O)[C@@H](Cc2c[nH]c3ccccc23)NC(=O)[C@@H](CNC(=O)c2ccc(Cl)s2)N1 [X D4 w B1] ([Mpa][dDap](2Thenoyl(5-Cl))[dW]P-Cysteamide; disulfide 1-C) | 68.9 | 70.9 | – | – |
| O=C1CCNC(=O)[C@@H](Cc2c[nH]c3ccccc23)NC(=O)[C@@H](CNC(=O)c2ccc(Cl)s2)NC(=O)CCSSCCN1 [X D4 w B2] | 90.8 | 96.7 | – | – |
| CC[C@H](C)[C@@H]1NC(=O)CCNC(=O)C2(CCN(C(=O)c3ccc(Cl)s3)CC2)NC(=O)CCSSCCNC1=O [X D6 B2 I] | 104.4 | 109.7 | – | – |
| CC1NC(=O)c2ccc(cc2)CNC(=O)C2(CCN(C(=O)c3ccc(Cl)s3)CC2)NC(=O)CCSSCCNC1=O (stereo not shown) [X D6 B3 a] | 92.0 | 95.8 | – | – |
| CC(C)C[C@@H]1NC(=O)c2cccc(c2)CNC(=O)C2(CCN(C(=O)c3ccc(Cl)s3)CC2)NC(=O)CCSSCCNC1=O [X D6 B5 L] | 105.2 | 108.9 | – | – |
| O=C1CCSSCCNC(=O)[C@@H](Cc2ccccc2)NC(=O)c2cccc(c2)CNC(=O)C2(CCN(C(=O)c3ccc(Cl)s3)CC2)N1 [X D6 B5 f] | 92.3 | 95.8 | – | – |
| O=C1CCSSCCNC(=O)[C@H](Cc2c[nH]cn2)NC(=O)C2(CC2)CNC(=O)C2(CCN(C(=O)c3ccc(Cl)s3)CC2)N1 [X D6 B6 H] | 96.8 | 96.5 | – | – |
| CC(C)C1NC(=O)C2(CCN(C(=O)c3ccc(Cl)s3)CC2)NC(=O)CCSSCCNC(=O)C2CCCN(C2)C1=O (stereo not shown) [X D6 V B4] | 81.5 | 80.4 | – | – |
| O=C1CCSSCCNC(=O)[C@H]2CCCN(C2)C(=O)[C@H](Cc2c[nH]c3ccccc23)NC(=O)C2(CCN(C(=O)c3ccc(Cl)s3)CC2)N1 [X D6 W B4] | 95.3 | 101.4 | – | – |
| CC(C)[C@H]1NC(=O)C2(CCN(C(=O)c3ccc(Cl)s3)CC2)NC(=O)CCSSCCNC(=O)c2cccc(c2)CNC1=O [X D6 v B5] | 84.9 | 90.5 | 98.9 | 103.9 |
| O=C1CCNC(=O)[C@@H](Cc2ccc(O)cc2)NC(=O)C2(CCN(C(=O)c3ccc(Cl)s3)CC2)NC(=O)CCSSCCN1 [X D6 y B2] | 102.0 | 104.5 | – | – |
| O=C1CCNC(=O)[C@H](Cc2c[nH]cn2)NC(=O)CCSSCCNC(=O)[C@H](CCCNC(=O)c2ccc(Cl)s2)N1 [X H B2 D2] | 94.6 | 91.5 | – | – |
| O=C1CCSSCCNC(=O)C2CCCN2C(=O)C(CCCNC(=O)c2ccc(Cl)s2)NC(=O)C(Cc2c[nH]cn2)N1 (stereo not shown) [X H D2 B1] ([Mpa]H[Orn](2Thenoyl(5-Cl))P-Cysteamide; disulfide 1-C; configuration not given here) | 95.8 | 95.8 | – | – |
| CC[C@H](C)[C@@H]1NC(=O)CCSSCCNC(=O)[C@H](CNC(=O)c2ccc(Cl)s2)NC(=O)[C@@H]2CCCN2C1=O [X I B1 D3] ([Mpa]IP[Dap](2Thenoyl(5-Cl))-Cysteamide; disulfide 1-C) | 91.3 | 90.1 | – | – |
| CC[C@H](C)[C@@H]1NC(=O)CCSSCCNC(=O)[C@H](CNC(=O)c2ccc(Cl)s2)NC(=O)CCNC1=O [X I B2 D3] | 72.9 | 70.2 | – | – |
| CC[C@H](C)[C@@H]1NC(=O)CCSSCCNC(=O)[C@H]2CCCN(C2)C(=O)[C@H](CCCCNC(=O)c2ccc(Cl)s2)NC1=O [X I D1 B4] | 102.2 | 101.6 | – | – |
| CC(C)C[C@@H]1NC(=O)CCSSCCNC(=O)[C@H](CCCCNC(=O)c2ccc(Cl)s2)NC(=O)C2(CC2)CNC1=O [X L B6 D1] | 94.8 | 97.2 | – | – |
| NC(=O)CC[C@@H]1NC(=O)CCSSCCNC(=O)C2(CCN(C(=O)c3ccc(Cl)s3)CC2)NC(=O)CCNC1=O [X Q B2 D6] | 97.4 | 98.1 | – | – |
